Results on 2 molecules are retold here after paper PMC11078827, “Characterization and functional evidence for Orf2 of Streptomyces sp. 139 as a novel dipeptidase E” (Applied Microbiology and Biotechnology, 2024).

In data set [1] the target is T1, Orf2 (Streptomyces tendae, UniProt A0ABX5ZPB3, D147A).
T1 construct: gene F3L20_11885; full-length orf2 (744 bp) in pET30a(+), His-tagged (mutants in pET28a), E. coli BL21(DE3), Ni-NTA
In words: absorbance at […] nm, activity assay. Conditions: 50 mM imidazole pH 7.5, 40 °C; substrate of the standard assay, not named again for the mutants. It is filed as biochemical.

For data set [2], the target named is T2, Orf2 (Streptomyces tendae, UniProt A0ABX5ZPB3, H170A).
T2 construct: gene F3L20_11885; full-length orf2 (744 bp) in pET30a(+), His-tagged (mutants in pET28a), E. coli BL21(DE3), Ni-NTA
In words: absorbance at […] nm, activity assay. It is filed as biochemical. Conditions: 50 mM imidazole pH 7.5, 40 °C; substrate of the standard assay, not named again for the mutants.

Data set [3] has as its target T3, Orf2 (Streptomyces tendae, UniProt A0ABX5ZPB3, D198A).
T3 construct: gene F3L20_11885; full-length orf2 (744 bp) in pET30a(+), His-tagged (mutants in pET28a), E. coli BL21(DE3), Ni-NTA
Kind of data set: absorbance at […] nm, activity assay. It is filed as biochemical. Conditions: 50 mM imidazole pH 7.5, 40 °C; substrate of the standard assay, not named again for the mutants.

Data set [4] concerns the target T4, Orf2 (Streptomyces tendae, UniProt A0ABX5ZPB3, S134A).
T4 construct: gene F3L20_11885; full-length orf2 (744 bp) in pET30a(+), His-tagged (mutants in pET28a), E. coli BL21(DE3), Ni-NTA
Kind of data set: absorbance at […] nm, activity assay. The class given is biochemical. Conditions: 50 mM imidazole pH 7.5, 40 °C; substrate of the standard assay, not named again for the mutants.

Substrate in the data set “purified protein”: N[C@@H](CC(=O)O)C(=O)Nc1ccc([N+](=O)[O-])cc1
Kind of data set: purified protein. The class given is biochemical, Streptomyces tendae. As to conditions: 50 mM imidazole pH 7.5, 40 °C, 10 min, substrate 3.91-500 μM, hydrolysis of chromogenic substrate.

T4 sequence (A0ABX5ZPB3 entry or part of it S134A): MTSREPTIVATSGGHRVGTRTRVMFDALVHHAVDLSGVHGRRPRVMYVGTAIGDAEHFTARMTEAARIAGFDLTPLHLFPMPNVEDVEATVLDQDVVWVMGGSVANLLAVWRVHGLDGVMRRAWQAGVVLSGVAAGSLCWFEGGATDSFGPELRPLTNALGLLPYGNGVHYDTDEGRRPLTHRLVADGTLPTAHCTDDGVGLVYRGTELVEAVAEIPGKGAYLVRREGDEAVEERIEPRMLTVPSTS
T2 sequence (A0ABX5ZPB3 entry or part of it H170A): as the sequence (A0ABX5ZPB3 entry or part of it S134A) above, with A134S, H170A counted along it
T1 sequence (A0ABX5ZPB3 entry or part of it D147A): as the sequence (A0ABX5ZPB3 entry or part of it S134A) above, with A134S, D147A counted along it
T3 sequence (A0ABX5ZPB3 entry or part of it D198A): as the sequence (A0ABX5ZPB3 entry or part of it S134A) above, with A134S, D198A counted along it

On to `N[C@@H](CC(=O)O)C(=O)Nc1ccc([N+](=O)[O-])cc1` [Asp-ρNA], for which the “absorbance at 405 nm, activity assay” value on Orf2 [1], on Orf2 [2], at Orf2 [3] and at Orf2 [4] was “all of these mutant proteins lost their activity (data not shown)” throughout.

B1: Orf2 (Streptomyces tendae) (protein)
chain: MTSREPTIVATSGGHRVGTRTRVMFDALVHHAVDLSGVHGRRPRVMYVGTAIGDAEHFTARMTEAARIAGFDLTPLHLFPMPNVEDVEATVLDQDVVWVMGGSVANLLAVWRVHGLDGVMRRAWQAGVVLSGVSAGSLCWFEGGATDSFGPELRPLTNALGLLPYGNGVHYDTDEGRRPLTHRLVADGTLPTAHCTDDGVGLVYRGTELVEAVAEIPGKGAYLVRREGDEAVEERIEPRMLTVPSTS
notes: full-length orf2 (744 bp) in pET30a(+), His-tagged (mutants in pET28a), E. coli BL21(DE3), Ni-NTA
B1: in “purified protein”, the Km (in general, the concentration of substrate that gives half-maximal velocity) was found to be 1709 µM and the kcat (in general, the maximal rate divided by the concentration of active sites) amounted to 5.628 s⁻¹.
